Reference: publication PMC8234244, “Virtual Evolution of HVEM Segment for Checkpoint Inhibitor Discovery” (International Journal of Molecular Sciences, 2021)
Residues, ends and D or L forms follow the SMILES beside them.

How the values were obtained:
[1] = tested on: BTLA/HVEM binding (BTLA-Fc coated, HVEM-biotin); assay: Competitive ELISA, peptides against Biotin-HVEM for BTLA; settings: 1 mg/mL peptide; for Inhibition in preliminary competitive ELISA screen: 12 h at room temperature, peptides with response value under 85% of the control were selected, absorbance 630 nm; for Inhibition of BTLA/HVEM binding, titration of peptide-BTLA with different concentrations of HVEM: competitive ELISA, dose dependent, HVEM-biotin titrated, qualitative comparison
Source text: Though computational methods provided certain guidelines for picking the mutations, they are not 100% accurate since simplified models were used, like ignoring the possible conformation changes caused by mutations. Thus, the wet-lab examination is necessary to confirm their inhibition effects. The library containing predicted peptides was synthesized by solid phase peptide synthesis (SPPS) method with Fmoc strategy. We used competitive ELISA for the screen to ensure the positive peptides selectively binds in situ on the BTLA/HVEM interface. Biotin-HVEM was used as the signal reporter. Peptides with strong binding of BTLA will compete with Biotin-HVEM and result in lower signal. A primary screen was carried out by using 1 mg/mL of each peptide and those with response value under 85% of the control were selected for further characterization (Figure 2a).
96-well EIA/RIA plates (High Binding, Corning Incorporated) were coated with 350 ng/well of recombinant BTLA-Fc protein in PBS (50 µL/well), incubating at 37 °C overnight until the solutions evaporate completely. Methanol was added for protein fixation and the wells were blocked with 5% BSA in PBS (200 µL/well). The peptides in DMSO were diluted into 1 mg/mL in PBS (50 µL/well) and incubated 12 h at room temperature. Wells were washed six times with PBST (phosphate buffer saline with 0.1% Tween-20, pH 7.4). Different concentrations of recombinant HVEM-biotin protein (50 µL/well) was added and incubated for 2 h at room temperature. Wells were washed six times with PBS. Horseradish peroxidase (HRP) labeled Streptavidin was finally added at a 1/5000 dilution in PBS and incubated for 2 h at room temperature. 3, 3′, 5, 5′,-tetramethylbenzidine (TMB, Beyotime) was used for color development. The absorbance was read at 630 nm using Microplate Reader. Statistical analysis of the results was performed using GraphPad Prism 7 software.

BTLA-Fc = target: T1, BTLA-Fc (Homo sapiens, UniProt Q7Z6A9); assay: Surface plasmon resonance (SPR), binding of peptides to BTLA; settings: for Binding to BTLA in words: qualitative statement in running text
T1 construct: Fc
T1 sequence (Q7Z6A9 31-157 limits assumed): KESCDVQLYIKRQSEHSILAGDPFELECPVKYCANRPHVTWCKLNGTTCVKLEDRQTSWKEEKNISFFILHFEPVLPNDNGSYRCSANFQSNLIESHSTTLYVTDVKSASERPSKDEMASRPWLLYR
Procedure: The SPR assay was conducted using Biacore T100 system with Sensor Chip CM5 (Cytiva, Marlborough, MA, USA). BTLA-Fc was conjugated to the chips with EDC/NHS coupling in NaAc buffer. The assay was performed in PBS buffer with 2% DMSO. The buffer calibration was conducted by mixing different volume of buffers with 1.5% or 2.8% DMSO. Various concentrations of the peptides were injected and flow through the chip at 30 µL/min. The signals were recorded and analyzed with either static (for fast dissociation) or kinetic (for slow dissociation) model.

[2] = target: T2, recombinant BTLA-Fc protein (B and T lymphocyte attenuator) (UniProt Q7Z6A9 31-137); assay: SPR; Biacore T100, CM5 chip; BTLA-Fc coupled by EDC/NHS; peptides injected at 30 µL/min in PBS with 2% DMSO; static (fast dissociation) or kinetic (slow dissociation) model; settings: both partners purified
T2 construct: B and T lymphocyte attenuator (BTLA); source: recombinant
T2 sequence: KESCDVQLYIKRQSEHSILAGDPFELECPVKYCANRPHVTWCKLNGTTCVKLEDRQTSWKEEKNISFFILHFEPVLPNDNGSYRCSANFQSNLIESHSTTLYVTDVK

Ac-KEACGDLTGTVCE-NH2 [SP6, single mutant E31D of HVEM (26–38)]
Inhibition in preliminary competitive ELISA screen [1]: showed inhibition

Ac-KKACGELTGTVCF-NH2 [DP3, double mutant E27K E38F of HVEM (26–38)]
Inhibition in preliminary competitive ELISA screen [1]: showed inhibition

CC(=O)N[C@@H](CCC(=O)O)C(=O)N[C@@H](CO)C(=O)N[C@@H](CS)C(=O)N1CCC[C@H]1C(=O)N[C@@H](CCCCN)C(=O)N[C@@H](CS)C(=O)N[C@@H](CO)C(=O)N1CCC[C@H]1C(=O)NCC(=O)N[C@@H](Cc1ccc(O)cc1)C(=O)N[C@@H](CCCNC(=N)N)C(=O)N[C@H](C(=O)N[C@@H](CCCCN)C(=O)N[C@@H](CCC(=O)O)C(=O)N[C@@H](C)C(=O)N[C@@H](CS)C(=O)NCC(=O)N[C@@H](CCC(=O)O)C(=O)N[C@@H](CC(C)C)C(=O)N[C@H](C(=O)NCC(=O)N[C@H](C(=O)N[C@H](C(=O)N[C@@H](CS)C(=O)N[C@@H](CCC(=O)O)C(=O)N1CCC[C@H]1C(N)=O)C(C)C)[C@@H](C)O)[C@@H](C)O)C(C)C [P0-E2, reference compound] (Ac-ESCPKCSPGYRVKEACGELTGTVCEP-NH2; N-terminus and C-terminus assumed)
Inhibition of BTLA/HVEM binding, titration of peptide-BTLA with different concentrations of HVEM [1]: more potency than P0

CC(=O)N[C@@H](Cc1ccc(O)cc1)C(=O)N[C@@H](CCCNC(=N)N)C(=O)N[C@H](C(=O)N[C@@H](CCCCN)C(=O)N1CCC[C@H]1C(=O)N[C@@H](C)C(=O)N[C@@H](CS)C(=O)NCC(=O)N[C@@H](CCC(=O)O)C(=O)N[C@@H](CC(C)C)C(=O)N[C@H](C(=O)NCC(=O)N[C@H](C(=O)N[C@H](C(=O)N[C@@H](CS)C(=O)N[C@@H](Cc1ccccc1)C(=O)N1CCC[C@H]1C(N)=O)C(C)C)[C@@H](C)O)[C@@H](C)O)C(C)C [DP2-E1] (Ac-YRVKPACGELTGTVCFP-NH2)
Binding to BTLA in words (BTLA-Fc): binds slightly tighter than P0-E1, however weaker than DP2 | Inhibition of BTLA/HVEM binding, titration of peptide-BTLA with different concentrations of HVEM [1]: higher affinity than the native ones

CC(=O)N[C@@H](Cc1ccc(O)cc1)C(=O)N[C@@H](CCCNC(=N)N)C(=O)N[C@H](C(=O)N[C@@H](CCCCN)C(=O)N[C@@H](CCC(=O)O)C(=O)N[C@@H](C)C(=O)N[C@@H](CS)C(=O)NCC(=O)N[C@@H](CCC(=O)O)C(=O)N[C@@H](CC(C)C)C(=O)N[C@H](C(=O)NCC(=O)N[C@H](C(=O)N[C@H](C(=O)N[C@@H](CS)C(=O)N[C@@H](CCC(=O)O)C(=O)N1CCC[C@H]1C(N)=O)C(C)C)[C@@H](C)O)[C@@H](C)O)C(C)C [P0-E1] (Ac-YRVKEACGELTGTVCEP-NH2)
Kd (BTLA-Fc; value as stated in running text): 9000 µM

Ac-KEACGELPGTVCE-NH2 [SP7, single mutant T33P of HVEM (26–38)]
Inhibition in preliminary competitive ELISA screen [1]: showed inhibition

Ac-KEACGELTGTVCE-NH2 [P0, reference compound]
Binding to BTLA in words (BTLA-Fc): can barely bind to BTLA | Inhibition of BTLA/HVEM binding, titration of peptide-BTLA with different concentrations of HVEM [1]: demonstrated little inhibition

CC(=O)N[C@@H](CCC(=O)O)C(=O)N[C@@H](CO)C(=O)N[C@@H](CS)C(=O)N1CCC[C@H]1C(=O)N[C@@H](CCCCN)C(=O)N[C@@H](CS)C(=O)N[C@@H](CO)C(=O)N1CCC[C@H]1C(=O)NCC(=O)N[C@@H](Cc1ccc(O)cc1)C(=O)N[C@@H](CCCNC(=N)N)C(=O)N[C@H](C(=O)N[C@@H](CCCCN)C(=O)N1CCC[C@H]1C(=O)N[C@@H](C)C(=O)N[C@@H](CS)C(=O)NCC(=O)N[C@@H](CCC(=O)O)C(=O)N[C@@H](CC(C)C)C(=O)N[C@H](C(=O)NCC(=O)N[C@H](C(=O)N[C@H](C(=O)N[C@@H](CS)C(=O)N[C@@H](Cc1ccccc1)C(=O)N1CCC[C@H]1C(N)=O)C(C)C)[C@@H](C)O)[C@@H](C)O)C(C)C [DP2-E2] (Ac-ESCPKCSPGYRVKPACGELTGTVCFP-NH2)
Inhibition of BTLA/HVEM binding, titration of peptide-BTLA with different concentrations of HVEM [1]: higher affinity than the native ones

CC(=O)N[C@@H](CCCCN)C(=O)N1CCC[C@H]1C(=O)N[C@@H](C)C(=O)N[C@@H](CS)C(=O)NCC(=O)N[C@@H](CCC(=O)O)C(=O)N[C@@H](CC(C)C)C(=O)N[C@H](C(=O)NCC(=O)N[C@H](C(=O)N[C@H](C(=O)N[C@@H](CS)C(=O)N[C@@H](Cc1ccccc1)C(N)=O)C(C)C)[C@@H](C)O)[C@@H](C)O [DP2] (Ac-KPACGELTGTVCF-NH2)
Inhibition in preliminary competitive ELISA screen [1]: showed inhibition | Inhibition of BTLA/HVEM binding, titration of peptide-BTLA with different concentrations of HVEM [1]: showed the best inhibitory effects

Ac-KPACGELTGTVCE-NH2 [SP3, single mutant E27P of HVEM (26–38)]
Inhibition in preliminary competitive ELISA screen [1]: showed inhibition

Ac-ESCPKCSPGYRVKEACGELTGTVCEP-NH2 (cysteine pairing not given here) [P0-E2]
Kd [2]: 94.1 µM

B1: DP2-E2 (peptide)
peptide: Ac-ESCPKCSPGYRVKPACGELTGTVCFP-NH2
modifications: cysteine pairing not given here
notes: HVEM residues 14-39 with the DP2 mutations E27P and E38F; also called extended DP2 (26 aa); source: synthetic peptide (SPPS, Fmoc; Jiangsu Shenlang Biotech)
Kd [2]: 0.00146 µM

B2: DP2-E1 (peptide)
peptide: Ac-YRVKPACGELTGTVCFP-NH2
modifications: cysteine pairing not given here
notes: HVEM residues 23-39 with the DP2 mutations E27P and E38F; also called extended DP2 (17 aa); source: synthetic peptide (SPPS, Fmoc; Jiangsu Shenlang Biotech)
Kd [2]: 3040 µM

Ac-YRVKEACGELTGTVCEP-NH2 (cysteine pairing not given here) [P0-E1]
Kd [2]: 9930 µM

B3: DP2 E27P E38F (peptide)
peptide: Ac-KPACGELTGTVCF-NH2
modifications: cysteine pairing not given here
notes: HVEM residues 26-38 with E27P and E38F; source: synthetic peptide (SPPS, Fmoc; Jiangsu Shenlang Biotech)
Kd [2]: 1750 µM
